What was measured:
COLO 205 (Colon cancer) = test: NCI-60 screen (SRB, 48 h); details: Homo sapiens
HCT-15 (Colon cancer) = test: NCI-60 screen (SRB, 48 h); details: Homo sapiens
KM12 (Colon cancer) = test: NCI-60 screen (SRB, 48 h); details: Homo sapiens
OVCAR-3 (Ovarian cancer) = test: cells; details: Homo sapiens
Prostate cancer subpanel = test: NCI-60 screen, subpanel; details: Homo sapiens
MALME-3M (Melanoma) = test: NCI-60 screen (SRB, 48 h); details: Homo sapiens
T-47D (Breast cancer) = test: NCI-60 screen (SRB, 48 h); details: Homo sapiens, T47D
TK-10 (Renal cancer) = test: NCI-60 screen (SRB, 48 h); details: Homo sapiens
HCC-2998 (Colon cancer) = test: NCI-60 screen (SRB, 48 h)
SK-MEL-5 (Melanoma) = test: NCI-60 screen (SRB, 48 h); details: Homo sapiens
MOLT-4 (Leukemia) = test: NCI-60 screen (SRB, 48 h); details: Homo sapiens, MOLT-4
HS 578T (Breast cancer) = test: NCI-60 screen (SRB, 48 h); details: Homo sapiens
SNB-19 (CNS cancer) = test: NCI-60 screen (SRB, 48 h); details: Homo sapiens
RPMI-8226 (Leukemia) = test: NCI-60 screen (SRB, 48 h); details: Homo sapiens
UO-31 (Renal cancer) = test: NCI-60 screen (SRB, 48 h); details: Homo sapiens
CCRF-CEM (Leukemia) = test: NCI-60 screen (SRB, 48 h); details: Homo sapiens
DU-145 (Prostate cancer) = test: NCI-60 screen (SRB, 48 h); details: Homo sapiens
Melanoma subpanel = test: NCI-60 screen, subpanel; details: Homo sapiens
HT29 (Colon cancer) = test: NCI-60 screen (SRB, 48 h); details: Homo sapiens
MCF7 (Breast cancer) = test: NCI-60 screen (SRB, 48 h); details: Homo sapiens
MDA-MB-435 (Melanoma) = test: NCI-60 screen (SRB, 48 h); assay type: cell-based; details: Homo sapiens
HOP-92 (NSC lung cancer) = test: NCI-60 screen (SRB, 48 h); details: Homo sapiens
K-562 (Leukemia) = test: NCI-60 screen (SRB, 48 h); details: Homo sapiens, K562
IGROV1 (Ovarian cancer) = test: NCI-60 screen (SRB, 48 h)
[1] = system: NCI-H226 (NSC lung cancer); test: NCI-60 screen (SRB, 48 h); details: Homo sapiens
UACC-257 (Melanoma) = test: NCI-60 screen (SRB, 48 h); details: Homo sapiens
SW-620 (Colon cancer) = test: NCI-60 screen (SRB, 48 h); details: Homo sapiens
Leukemia subpanel = test: cells; details: Homo sapiens

## C=C(C)[C@@H]1CCC=C2CC[C@]3(C)[C@H](CC[C@@H]4[C@@]5(C)CCCNC(C)(C)[C@@H]5CC[C@]43C)[C@H]21 [Compound 8]
COLO 205 (Colon cancer); COLO 205
  GI50: 1.38 µM
COLO 205 (Colon cancer); COLO 205, 48 h, read-out: TGI
  IC (TGI): 2.79 µM
COLO 205 (Colon cancer); COLO 205, read-out: LC50
  CC50: 5.64 µM
HCT-15 (Colon cancer); HCT-15
  GI50: 1.44 µM
HCT-15 (Colon cancer); HCT-15, 48 h, read-out: TGI
  IC (TGI): 2.84 µM
HCT-15 (Colon cancer); HCT-15, read-out: LC50
  CC50: 5.59 µM
KM12 (Colon cancer); KM12
  GI50: 1.93 µM
KM12 (Colon cancer); KM12, 48 h, read-out: TGI
  IC (TGI): 3.6 µM
KM12 (Colon cancer); KM12, read-out: LC50
  CC50: 6.71 µM
OVCAR-3 (Ovarian cancer); OVCAR-3
  GI50: 1.79 µM
OVCAR-3 (Ovarian cancer); OVCAR-3, 48 h, read-out: TGI
  IC (TGI): 3.4 µM
Prostate cancer subpanel; 48 h, read-out: TGI MG_MID
  IC (TGI): 3.2 µM
Prostate cancer subpanel; read-out: GI50 MG_MID
  GI50: 1.71 µM
Prostate cancer subpanel; read-out: LC50 MG_MID
  CC50: 5.97 µM
MALME-3M (Melanoma)
  GI50: 1.7 µM
MALME-3M (Melanoma); 48 h, read-out: TGI
  IC (TGI): 3.46 µM
T-47D (Breast cancer)
  GI50: 1.72 µM
T-47D (Breast cancer); 48 h, read-out: TGI
  IC (TGI): 3.47 µM
T-47D (Breast cancer); read-out: LC50
  CC50: 7 µM
TK-10 (Renal cancer); TK-10
  GI50: 1.88 µM
TK-10 (Renal cancer); TK-10, 48 h, read-out: TGI
  IC (TGI): 3.45 µM
TK-10 (Renal cancer); TK-10, read-out: LC50
  CC50: 6.32 µM
HCC-2998 (Colon cancer); HCC-2998, 1 dose 10 µM
  Growth % of the Most Sensitive Cell Lines: −93.75%
HCC-2998 (Colon cancer); Homo sapiens, HCC 2998
  GI50: 1.31 µM
HCC-2998 (Colon cancer); Homo sapiens, HCC 2998, 48 h, read-out: TGI
  IC (TGI): 2.76 µM
SK-MEL-5 (Melanoma); SK-MEL-5
  GI50: 1.7 µM
SK-MEL-5 (Melanoma); SK-MEL-5, 48 h, read-out: TGI
  IC (TGI): 3.14 µM
MOLT-4 (Leukemia)
  GI50: 1.09 µM
HS 578T (Breast cancer)
  GI50: 1.87 µM
HS 578T (Breast cancer); 48 h, read-out: TGI
  IC (TGI): 4.39 µM
HS 578T (Breast cancer); read-out: LC50
  CC50: 15.9 µM
SNB-19 (CNS cancer); SNB-19
  GI50: 1.93 µM
SNB-19 (CNS cancer); SNB-19, 48 h, read-out: TGI
  IC (TGI): 3.44 µM
RPMI-8226 (Leukemia); RPMI-8226
  GI50: 2.26 µM
RPMI-8226 (Leukemia); RPMI-8226, 48 h, read-out: TGI
  IC (TGI): 4.73 µM
UO-31 (Renal cancer); UO-31
  GI50: 1.52 µM
UO-31 (Renal cancer); UO-31, 48 h, read-out: TGI
  IC (TGI): 2.89 µM
UO-31 (Renal cancer); UO-31, read-out: LC50
  CC50: 5.52 µM
CCRF-CEM (Leukemia)
  GI50: 2.27 µM
CCRF-CEM (Leukemia); 48 h, read-out: TGI
  IC (TGI): 5.63 µM
CCRF-CEM (Leukemia); read-out: LC50
  CC50: > 100 µM
DU-145 (Prostate cancer); DU-145
  GI50: 1.77 µM
DU-145 (Prostate cancer); DU-145, 48 h, read-out: TGI
  IC (TGI): 3.33 µM
DU-145 (Prostate cancer); DU-145, read-out: LC50
  CC50: 6.26 µM
Melanoma subpanel; 48 h, read-out: TGI MG_MID
  IC (TGI): 3.46 µM
Melanoma subpanel; read-out: GI50 MG_MID
  GI50: 1.84 µM
Melanoma subpanel; read-out: LC50 MG_MID
  CC50: 6.73 µM
HT29 (Colon cancer); HT-29
  GI50: 1.2 µM
HT29 (Colon cancer); HT-29, 48 h, read-out: TGI
  IC (TGI): 2.58 µM
HT29 (Colon cancer); HT-29, read-out: LC50
  CC50: 5.56 µM
MCF7 (Breast cancer); MCF7
  GI50: 1.37 µM
MCF7 (Breast cancer); MCF7, 48 h, read-out: TGI
  IC (TGI): 2.92 µM
MCF7 (Breast cancer); MCF7, read-out: LC50
  CC50: 6.22 µM
MDA-MB-435 (Melanoma); MDA-MB-435
  GI50: 1.87 µM
MDA-MB-435 (Melanoma); MDA-MB-435, 48 h, read-out: TGI
  IC (TGI): 3.49 µM
MDA-MB-435 (Melanoma); MDA-MB-435, read-out: LC50 (the source's name)
  CC50: 6.51 µM
HOP-92 (NSC lung cancer); HOP-92
  GI50: 1.37 µM
HOP-92 (NSC lung cancer); HOP-92, 48 h, read-out: TGI
  IC (TGI): 2.77 µM
HOP-92 (NSC lung cancer); HOP-92, read-out: LC50
  CC50: 5.61 µM
K-562 (Leukemia)
  GI50: 0.32 µM
IGROV1 (Ovarian cancer); Homo sapiens, IGROV-1
  GI50: 1.69 µM
IGROV1 (Ovarian cancer); Homo sapiens, IGROV-1, 48 h, read-out: TGI
  IC (TGI): 3.28 µM
IGROV1 (Ovarian cancer); Homo sapiens, IGROV-1, read-out: LC50
  CC50: 6.35 µM
IGROV1 (Ovarian cancer); IGROV1, 1 dose 10 µM
  Growth % of the Most Sensitive Cell Lines: −94.22%
[1]; NCI-H226
  GI50: 1.97 µM
[1]; NCI-H226, 48 h, read-out: TGI
  IC (TGI): 3.81 µM
UACC-257 (Melanoma); UACC-257
  GI50: 2.19 µM
UACC-257 (Melanoma); UACC-257, 48 h, read-out: TGI
  IC (TGI): 4.29 µM
UACC-257 (Melanoma); UACC-257, read-out: LC50
  CC50: 8.38 µM
SW-620 (Colon cancer); SW-620
  GI50: 1.92 µM
SW-620 (Colon cancer); SW-620, 48 h, read-out: TGI
  IC (TGI): 3.75 µM
Leukemia subpanel; 48 h, read-out: TGI MG_MID
  IC (TGI): 5.18 µM
Leukemia subpanel; read-out: GI50 MG_MID
  GI50: 1.48 µM
Leukemia subpanel; read-out: LC50 MG_MID
  CC50: > 100 µM

Reference: PMC7914897, “Cytotoxic Potential of a-Azepano- and 3-Amino-3,4-SeCo-Triterpenoids” (International Journal of Molecular Sciences, 2021)
